One data set relates to PTP1B expression. Put plainly: PTP1B expression level in insulin-resistant HepG2 cells (Western blot). It is filed as cell-based, human. How it is done: Insulin-resistant HepG2 cells were exposed to different concentrations of 1–3 or rosiglitazone (10 μM) in 24-well plates. After 24 h of incubation with samples, the media in the wells was replaced with 100 nM insulin diluted in SFMEM and incubated at 37 °C for 30 min. Cells were then washed twice with ice-cold PBS, collected, and lysed with sample buffer (50 mM HEPES, pH 7.5, 150 mM NaCl, 2.5 mM EDTA, 0.5% NP-40, 1 mM PMSF, 1 mM DTT, 0.2% aprotinin, 0.5% leupeptin, 20 mM NaF, and 1 mM Na3VO4). Protein was quantified by the modified Bradford protein assay kit using BSA as a standard. Total protein (50 μg) was electrophoresed on sodium dodecyl sulfate-polyacrylamide gels (Bio-Rad, Hercules, CA, USA) and then transferred to polyvinylidene difluoride (PVDF) membranes (Immobilon-P; Millipore, Burlington, MA, USA) using the Pierce G2 Fast Blotter (Thermo Fisher Scientific Inc., Fair Lawn, NJ, USA) at 100 V for 60 min in a standard semi-dry system. Membranes were blocked in blocking buffer (5% skim milk powder in TBS-Tween buffer containing 10 mM Tris, 100 mM NaCl, and 0.1% Tween-20, pH 7.4) and incubated overnight with primary antibodies at 4 °C on a shaker, followed by incubation with appropriate secondary antibodies for 2 h at room temperature. The membranes were washed three times with TBST (3 × 10 min each) and the protein bands were visualized with the Supersignal West Pico Chemiluminescence Substrate (Pierce, Rockford, IL, USA) on X-ray films (Kodak, Rochester, NY, USA) and quantitated using CS analyzer software (Atto Corp., Tokyo, Japan).
(In western blotting, separated proteins are transferred to a membrane and probed.)

Data set [1] in a line: Cytotoxicity in HepG2 cells (MTT assay). The note with it: human, read-out: viable cell %. It is filed as cell-based. The method, then: In order to determine safe concentrations for cell experiments, the cytotoxicity of our test compounds in HepG2 cells was evaluated using an 3-(4,5-dimethylthiazol-2-yl)-2,5-diphenyltetrazolium bromide (MTT) assay. […] However, at 10 µM, the level of toxicity was high for 1 (viable cell %; 36), followed by 2 (viable cell %; 73) and 3 (viable cell %; 85). Therefore, 1.25, 2.5, and 5 µM concentrations were used in further cell experiments.
(§1) HepG2 (human hepatocarcinoma) cells, purchased from the American Type Culture Collection (HB-8065; Manassas, VA, USA), were maintained in 10% FBS MEM at 37 °C in a humidified atmosphere with 5% CO2. Medium was changed every 48 h. Cytotoxicity was evaluated using the MTT assay. Following the method previously described, insulin-resistant HepG2 cell model was established. All the other experiment conditions and procedures were similar to those reported in our previous paper.
(Tetrazolium assays rely on reduction of a dye to a coloured formazan, in cell work by metabolically active cells.)

Data set [2] has as its target T1, PTP1B (human recombinant) (Homo sapiens, UniProt P18031).
T1 construct: purchased Biomol International LP (Plymouth Meeting, PA, USA)
T1 sequence (P18031 1-435): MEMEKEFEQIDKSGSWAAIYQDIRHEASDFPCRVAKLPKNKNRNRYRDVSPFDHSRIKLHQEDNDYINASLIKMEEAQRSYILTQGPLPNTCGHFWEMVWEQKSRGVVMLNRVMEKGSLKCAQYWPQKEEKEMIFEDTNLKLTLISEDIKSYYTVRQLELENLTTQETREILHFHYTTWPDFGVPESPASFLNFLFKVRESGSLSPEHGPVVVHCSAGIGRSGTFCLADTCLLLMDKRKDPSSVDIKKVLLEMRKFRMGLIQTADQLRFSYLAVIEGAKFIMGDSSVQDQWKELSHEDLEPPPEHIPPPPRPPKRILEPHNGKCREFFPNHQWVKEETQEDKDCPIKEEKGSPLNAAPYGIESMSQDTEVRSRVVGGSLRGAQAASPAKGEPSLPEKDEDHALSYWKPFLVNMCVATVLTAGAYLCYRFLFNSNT
Put plainly: PTP1B inhibitory assay (pNPP substrate) and kinetic study. It is filed as biochemical. The note with it: for Ki: Dixon plot, read-out: Protein Tyrosine Phosphatase 1B Ki; for Protein Tyrosine Phosphatase 1B Inhibition Type: Lineweaver-Burk plot; for IC50: pNPP substrate, mean ± SEM of triplicate experiments, read-out: Protein Tyrosine Phosphatase 1B IC50. The method, then:
PTP1B inhibitory activity was evaluated using pNPP [44]. Recombinant PTP1B enzyme (0.5 units diluted in PTP1B reaction buffer) was added to a plate with or without sample. The plate was pre-incubated at 37 °C for 10 min, and then substrate (2 mM pNPP) was added. Following incubation at 37 °C for 15 min, the enzymatic reaction was terminated by addition of 10 M NaOH. The absorbance was measured at 405 nm using a microplate spectrophotometer (Molecular Devices, Sunnyvale, CA, USA).
(§2) Lineweaver–Burk plots for inhibition of PTP1B were obtained in the presence of various concentrations of the test compounds (0, 0.18, 0.44 and 1.78 μM for 1; 0, 0.27, 0.54, and 1.07 μM for 2; 0, 0.87, 1.44, and 2.89 μM for 3). Similarly, for the inhibition of α-glucosidase, text concentrations used were 0, 0.71, 1.07, and 1.78 μM for 1; 0, 0.36, 0.9, and 1.79 μM for 2 and 0, 0.72, 2.88, and 5.77 μM for 3. The enzymatic procedure consisted of the same aforementioned assay method. The inhibition constants (Ki) were determined via interpretation of the Dixon plots, where the value of the x-axis implies −Ki.

For data set [3], the system named is insulin-resistant HepG2 cells. Briefly: Glucose uptake assay (2-NBDG) in insulin-resistant HepG2 cells. It is filed as cell-based, human. The method, then:
as §1
The glucose uptake rate in insulin-resistant HepG2 cells was assessed using the fluorescent D-glucose analog 2-NBDG. Once the induction of insulin resistance was accomplished, cell solutions in the wells were substituted with different concentrations of 1–3 or a positive control, rosiglitazone (10 µM), prepared in serum-free MEM (SFMEM) in respective groups. After 24 h incubation with samples, the media in the wells was replaced with 100 nM insulin diluted in SFMEM and incubated for 30 min. Cells were then incubated with 40 μM 2-NBDG for 30 min and washed with ice-cold PBS. The fluorescence intensity of 2-NBDG was measured on a fluorescence microplate reader (FL ×800, Bio-Tek Instruments, Inc., Winooski, VT, USA) at 485 nm excitation and 528 nm emission wavelengths. Six replicate wells were established, and each experiment was repeated three times.

The target of a further data set is α-glucosidase. Put plainly: α-Glucosidase inhibitory assay (pNPG substrate) and kinetic study. Format: biochemical. The note with it: for Ki: Dixon plot; for α-Glucosidase Inhibition Type: Lineweaver-Burk plot; for IC50: pNPG substrate, mean ± SEM of triplicate experiments. How it is done: The enzyme inhibition study was carried out spectrophotometrically using the procedure previously reported. The α-glucosidase activity was determined by measuring release of […] at 405 nm using a microplate spectrophotometer (Molecular Devices).
as §2

Molecules are shown by their SMILES.

For the compound `CC1=C[C@H]2c3c(O)cc(-c4cc5ccc(O)cc5o4)cc3O[C@@]3(c4ccc(O)cc4O)Oc4cc(O)ccc4[C@H](C1)[C@@H]23` [Compound 1, mulberrofuran G], the PTP1B expression entry with PTP1B expression (2.5 and 5 μM) is recorded as “diminished the PTP1B expression almost completely”. For the same compound, the viability at 10 µM in data set [1] stood at 36%. In addition, in data set [2], the Ki was found to be 700 nM, the “Protein Tyrosine Phosphatase 1B Inhibition Type” value was “Mixed type” and the IC50 was 570 ± 40 nM. The “relative glucose uptake percentage” value in data set [3] (5 µM) is 140%. In addition, at α-glucosidase, the Ki turned out to be 1200 nM, the “α-Glucosidase Inhibition Type” value is on record as “Mixed type” and half-maximal inhibition (IC50) was put at 1670 ± 20 nM.

As for `CC(C)=CCc1c(-c2ccc(O)cc2O)oc2c([C@H]3C=C(C)C[C@@H](c4ccc(O)cc4O)[C@@H]3C(=O)c3ccc(O)cc3O)c(O)cc(O)c2c1=O` [Compound 3, kuwanon G], the PTP1B expression entry in the data set on PTP1B expression (concentration dependent) was “downregulated the expression towards normal”. Also, in data set [1], the viability at 10 µM is 85%. Moreover, in data set [2], the Ki turned out to be 1980 nM, the “Protein Tyrosine Phosphatase 1B Inhibition Type” value was “Mixed type” and the IC50 was determined as 2260 ± 30 nM. Also, on α-glucosidase, the Ki is 2510 nM, the “α-Glucosidase Inhibition Type” value is given as “Mixed type” and the IC50 is 2350 ± 30 nM.

Turning to `Cc1cc2c3c(c1)-c1c(O)cc(-c4cc5ccc(O)cc5o4)cc1O[C@@]3(c1ccc(O)cc1O)Oc1cc(O)ccc1-2` [Compounds 2], the viability at 10 µM in data set [1] worked out at 73%. In data set [2], the Ki came to 1020 nM and the IC50 was found to be 800 ± 20 nM.

Regarding `CN(CCOc1ccc(CC2SC(=O)NC2=O)cc1)c1ccccn1` (stereo not shown) [rosiglitazone, reference compound], the PTP1B expression result in the data set with PTP1B expression (10 μM) is “declined”. In addition, the “relative % glucose uptake” value in data set [3] (10 µM) worked out at 123%.

As usually defined, the Ki is the equilibrium dissociation constant of an inhibitor or competing ligand from its target. By IC50 is commonly meant the concentration that gives 50% inhibition.

The values above are taken from paper PMC5983811, “Protein Tyrosine Phosphatase 1B Inhibition and Glucose Uptake Potentials of Mulberrofuran G, Albanol B, and Kuwanon G from Root Bark of Morus alba L. in Insulin-Resistant HepG2 Cells: An In Vitro and In Silico Study” (International Journal of Molecular Sciences, 2018).
